The nature of this test: Displacement of [3H]epibatine from nAChR in rat cortical membrane. The class given is cell membranes.
Consider `Ic1cncc([C@H]2C[C@H]3CC[C@H]2N3)c1` (stereo in doubt; (+)-4), for which the Ki was 0.048 nM. The result for `CN1[C@@H]2CC[C@@H]1[C@@H](c1cncc(I)c1)C2` (stereo in doubt; (+)-5) reads 0.055 nM; that for `Ic1cncc([C@H]2C[C@H]3CC[C@H]2N3)c1` (stereo in doubt; (-)-4), 0.045 nM. The result for `CN1[C@@H]2CC[C@@H]1[C@@H](c1cncc(I)c1)C2` (stereo in doubt; (-)-5) reads 1.68 nM; that for `Clc1ccc(C2CC3CCC2N3)cn1` (stereo not given) [EPIBATIDINE], 0.046 nM.

The Ki is a dissociation constant, usually derived from enzyme kinetics or from competition with a known ligand. Read a high Ki as weaker binding.

The values are drawn from ChEMBL document CHEMBL1152135, “New synthesis and evaluation of enantiomers of 7-methyl-2-exo-(3'-iodo-5'-pyridinyl)-7-azabicyclo[2.2.1]heptane as stereoselective ligands for PET imaging of nicotinic acetylcholine receptors” (Bioorg Med Chem Lett, 2008).
